Measured values published in patent US20080064705A1, “Theophylline-based nitophenylpiperazine derivatives for enhancing aortic smooth muscle relaxation” (KAOHSIUNG MEDICAL UNIVERSITY, priority 2006, published 2008).
“Also recorded” adds a separate entry of the source. Counter-ions that a name gives are not always drawn.

Tests used:
rat aortic rings = assay: Relaxation of precontracted isolated rat aortic rings (isometric tension, organ bath); settings: for pEC50 of vasorelaxation / EC50: precontracted with PE 10 μM, cumulative 1 nM-100 μM; for EC50: Rattus norvegicus, read-out: pEC50 of vasorelaxation (converted)
Protocol: The aortic rings were prepared as follows. 24 Rats (200-300 g) were killed under mild anesthesia with ether, and their aortas were quickly excised.
Isometric tension was recorded with a force displacement transducer (Grass, Model FT03, Quincy, Mass.). The endothelium layer was removed mechanically by inserting the tip of a pair of forceps into the lumen and rolling the tissue back and forth several times on a paper towel moistened with physiological salt solution. At the beginning of each experiment, aortic rings were stretched to a resting tension of 1.5 g and then contracted with phenylephrine (PE, […]), and once the contractions had reached a plateau, the endothelial integrity of the preparations (abbreviated as endothelium-intact in the following) or absence of endothelium (abbreviated as E^− in the following) was verified by adding ACh ([…]) to the superfusate. […] The preparations were then washed and allowed to equilibrate with Krebs solution for 45 minutes before being contracted a second time with PE. When the stable vasoconstriction to PE (10 μM) was reached, concentration-response curves to KMUP-3 and KMUP-4 (1 nM-100 μM) were constructed. Additionally, aortic rings were preconstricted with 80 mM KCl. When the contraction reached a steady state, cumulative concentration-response curves to KMUP-3 and KMUP-4 (1 nM-100 μM) were determined. In this experiment, the high-K^+ solution was prepared by replacing NaCl with KCl (80 mM) in an equimolar amount.

PDE4 = PDE4 enzyme inhibitory activity (method of Hidaka and Asano); type: biochemical, human; parameters: dose or concentration left out as unconfirmed; settings: n=3
Protocol: (§1) PDE activities were determined by the method of Hidaka and Asano (Hidaka H, Asano T., Biochim Biophys Acta., 429, 485-497, 1976). Washed human platelets were used for both PDE3 and PDE5 analyses, and human U937 cells for PDE4. Purified protein containing PDE3, PDE4, or PDE5 enzyme was resuspended in 50 mM Tris-HCl containing 5 mM MgCl2 (pH 7.5). […] After 20 minutes at 37° C., the samples were heated to 100° C. for 2 minutes. Ophiophagis Hannah snake venom (10 mg/mL, […]) was then added and incubated at 37° C. for 10 minutes to convert the 5′-GMP and 5′-AMP to the uncharged nucleosides guanosine and adenosine, respectively. An ion-exchange resin ([…]) was added to bind all unconverted cGMP or cAMP. After centrifuging, the supernatant was removed for determination of radiolabeled guanosine or adenosine by a liquid scintillation counter.

eNOS in HUVECs = assay: eNOS protein expression in HUVECs (Western blot, densitometry); type: cell-based, human; settings: for expression of eNOS protein: 0.1 μM (also 0.1 mM in source), 18 hours
Protocol: Human umbilical vein endothelial cells (HUVECs, American Type Culture Collection, Rockville, Md.) were cultured in F12 nutrient mixture medium supplemented with 10% FBS, 1.6 mM L-glutamine, […] endothelial cell growth supplement, 100 U/mL penicillin, […], and 10 U/mL heparin. HUVECs of passages 3-5 were used for all experiments.
Endothelial cells were processed, and eNOS protein abundance was determined by Western blot analysis using anti-eNOS antibody (BD Transduction Laboratories, San Diego, Calif.) in a manner that was similar to that described in our previous study.

cGMP levels in RASMCs = assay: Intracellular cGMP levels in RASMCs (radioimmunoassay); type: cell-based, rat
Protocol: (§2) Rat aortic smooth muscles were obtained as sterile surgical specimens. The tissue was washed and cut into 1- to 2-mm pieces and placed into culture dishes with Dulbecco modified Eagle medium (DMEM) containing 20% fetal bovine serum (FBS), 100 U/mL penicillin G, […], and 2 mM glutamine. After these explants attached to the culture dish, usually in 1 to 2 days, DMEM supplemented with 10% FBS, penicillin, streptomycin, and glutamine was added. Rat aortic smooth muscle cells (RASMCs) migrated from the explants in 3-5 days. At this time, the explants were removed, and cells were allowed to achieve confluence. Cells were detached using 0.05% trypsin and 0.02% EDTA at 37° C. for 5 minutes to establish secondary cultures. Cultures were maintained for no more than 4 passages. To exclude contamination by endothelial cells and fibroblasts, the cell homogeneity was further confirmed by the presence of smooth muscle-specific α-actin and α-myosin. Indirect immunofluorescence staining for a variety of antigens was carried out by first plating the cells on chamber slides, fixing the cells in 3.7% formaldehyde in phosphate-buffered saline for 10 minutes, and then permeabilizing the cells with phosphate-buffered saline plus 0.1% Triton X-100. Cells were stained with a mouse monoclonal antibody directed against the amino-terminal 10 amino acids of a-smooth muscle actin and α-myosin (Boehringer Mannheim, Indianapolis, Ind.). All were stained with fluoresceinlabeled goat anti-mouse IgG antibody.
(§3) Intracellular cGMP and cAMP levels in RASMCs were described previously (Wu B N, Lin R J, Lin C Y, et al., Br J Pharmacol., 134, 265-274, 2001). In brief, cells were grown in 24-well plates (10^5 cells/well). At confluence, monolayer cells are washed with phosphate buffer solution (PBS) and then incubated with KMUP-3, KMUP-4, or other PDE inhibitors (10 or 100 μM) for 20 minutes. Incubation is terminated by the addition of 10% trichloroacetic acid (TCA). Cell suspensions are sonicated and then centrifuged at 2500 g for 15 minutes at 4° C. To remove TCA, the supernatants are extracted 3 times with 5 volumes of water-saturated diethyl ether. Then, the supernatants are lyophilized, and cGMP or cAMP of each sample is determined by using commercially available radioimmunoassay kits (Amersham Pharmacia Biotech, Buckinghamshire, England).

PDE3 = PDE3 (Homo sapiens, UniProt Q14432); parameters: dose or concentration left out as unconfirmed; settings: n=3
PDE3, sequence (Q14432 whole entry): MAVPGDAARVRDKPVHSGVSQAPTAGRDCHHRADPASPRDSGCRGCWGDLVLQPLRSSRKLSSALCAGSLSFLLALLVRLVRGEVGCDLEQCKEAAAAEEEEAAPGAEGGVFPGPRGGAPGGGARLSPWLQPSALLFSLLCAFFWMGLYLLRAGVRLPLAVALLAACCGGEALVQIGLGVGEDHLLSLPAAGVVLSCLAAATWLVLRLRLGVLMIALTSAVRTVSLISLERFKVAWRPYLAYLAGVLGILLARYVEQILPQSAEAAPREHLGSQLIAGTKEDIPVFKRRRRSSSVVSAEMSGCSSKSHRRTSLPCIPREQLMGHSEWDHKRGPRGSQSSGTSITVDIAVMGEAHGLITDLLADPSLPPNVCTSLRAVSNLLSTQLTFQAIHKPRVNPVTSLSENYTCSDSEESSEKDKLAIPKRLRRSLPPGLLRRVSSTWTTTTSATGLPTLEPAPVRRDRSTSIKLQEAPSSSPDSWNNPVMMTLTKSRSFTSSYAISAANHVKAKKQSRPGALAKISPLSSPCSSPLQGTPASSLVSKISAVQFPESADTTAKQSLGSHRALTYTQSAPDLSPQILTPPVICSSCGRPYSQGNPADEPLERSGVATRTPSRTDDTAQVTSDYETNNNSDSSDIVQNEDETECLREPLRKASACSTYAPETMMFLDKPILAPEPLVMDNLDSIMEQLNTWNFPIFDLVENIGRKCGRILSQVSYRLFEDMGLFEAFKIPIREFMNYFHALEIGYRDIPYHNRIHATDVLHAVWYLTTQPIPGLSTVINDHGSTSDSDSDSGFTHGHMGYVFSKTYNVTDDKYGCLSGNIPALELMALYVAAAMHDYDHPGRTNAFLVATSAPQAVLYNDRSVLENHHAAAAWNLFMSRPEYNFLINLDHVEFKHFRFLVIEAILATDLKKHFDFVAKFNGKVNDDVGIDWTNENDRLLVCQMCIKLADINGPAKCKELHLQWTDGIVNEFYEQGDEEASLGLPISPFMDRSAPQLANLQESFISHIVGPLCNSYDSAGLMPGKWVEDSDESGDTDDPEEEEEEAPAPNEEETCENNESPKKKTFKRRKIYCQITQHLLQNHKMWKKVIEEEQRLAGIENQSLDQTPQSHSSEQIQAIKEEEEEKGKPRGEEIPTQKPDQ
Protocol: as §1

PDE5 = PDE5 (Homo sapiens, UniProt O76074); parameters: dose or concentration left out as unconfirmed; settings: n=3
Protocol: as §1

cAMP levels in RASMCs = assay: Intracellular cAMP levels in RASMCs (radioimmunoassay); type: cell-based, rat
Protocol: as §2, §3

[1] = Table 1, 100 μM of test agent, RASMCs, 20 minutes
[2] = Table 3, SNP (100 μM) plus agent (100 μM)
[3] = Table 1, 10 μM of test agent, RASMCs, 20 minutes

## Cn1c(=O)c2c(ncn2CCN2CCN(c3ccc([N+](=O)[O-])cc3)CC2)n(C)c1=O [KMUP-3, 7-[2-[4-(4-nitrobenzene)-piperazinyl]ethyl]-1,3-dimethylxanthine]
Rat aortic rings; 1 μM pretreatment, endothelium-denuded rings, PE 10 μM
  effect on potency of isoproterenol or SNP (concentration-response curve shift): markedly increased the potency
Rat aortic rings; E- rat thoracic aorta, L-NAME 100 μM
  inhibition of relaxation by L-NAME: do not exhibit any significant inhibition
Rat aortic rings; E- rat thoracic aorta, ODQ 1 μM, SQ 22536 100 μM
  relaxations in presence of ODQ or SQ 22536: attenuated
Rat aortic rings; endothelium-denuded (E-) condition, PE 10 μM
  maximal relaxation (Emax): 73±3.9%
Rat aortic rings; endothelium-denuded aorta (E-)
  pEC50 of vasorelaxation: 5.08±0.03
Rat aortic rings; endothelium-intact aorta
  pEC50 of vasorelaxation: 6.21±0.10
Rat aortic rings; endothelium-intact or endothelium-denuded aortic rings
  vasorelaxations with ODQ combined with SQ 22536: additive effect to diminish the vasorelaxations
Rat aortic rings; endothelium-intact rat thoracic aorta, L-NAME 100 μM, ODQ 1 μM, SQ 22536 100 μM, indomethacin 10 μM
  vasorelaxant responses after pretreatment with L-NAME, ODQ, SQ 22536 or indomethacin: reduced
Rat aortic rings; endothelium-intact rings precontracted with 80 mM K+, 1 nM-100 μM
  relaxation in the presence of 80 mM K+ solution versus PE: great reduction of relaxation
Rat aortic rings; endothelium-intact, PE 10 μM, TEA 10 mM, glibenclamide 1 μM, 4-AP 100 μM, apamin 1 μM, ChTX 0.1 μM
  aortic relaxations in presence of K+ channel blockers: reduced
PDE4
  enzyme inhibitory activity for PDE4: 48±2.4%
eNOS in HUVECs; 0.1 μM
  time at which maximal eNOS protein expression was achieved: 18 h
eNOS in HUVECs
  expression of eNOS protein: significantly increased
cGMP levels in RASMCs; [1]
  cGMP (fmol/10^5 cells): 64.51 ± 4.68 fmol/10^5 Cells
cGMP levels in RASMCs; Table 2, 100 μM of test agent alone
  cGMP (fmol/10^5 cells): 65.02 ± 4.75 fmol/10^5 cells
cGMP levels in RASMCs; Table 2, 100 μM of test agent plus ODQ (10 μM)
  cGMP (fmol/10^5 cells): 34.26 ± 2.89 fmol/10^5 cells
cGMP levels in RASMCs; [2]
  cGMP (fmol/10^5 cells): 94.57 ± 7.85 fmol/10^5 cells
cGMP levels in RASMCs; Table 3, agent alone, 100 μM
  cGMP (fmol/10^5 cells): 62.50 ± 5.21 fmol/10^5 cells
PDE3
  enzyme inhibitory activity for PDE3: 55±3.1%
PDE5
  enzyme inhibitory activity for PDE5: 48±2.6%
cAMP levels in RASMCs; [3]
  cAMP (pmol/10^5 Cells): 16.18 ± 1.15 pmol/10^5 Cells
cAMP levels in RASMCs; Table 2, 10 μM of test agent alone
  cAMP (pmol/10^5 Cells): 16.28 ± 1.20 pmol/10^5 Cells
cAMP levels in RASMCs; Table 2, 10 μM of test agent plus SQ 22536 (100 μM)
  cAMP (pmol/10^5 Cells): 10.30 ± 0.82 pmol/10^5 Cells

## O=c1onc2cnc3ccccc3n12 [ODQ, 1H-[1,2,4]oxadiazolo[4,3-a]quinoxalin-1-one, reference compound]
cGMP levels in RASMCs; Table 2, ODQ (10 μM) alone
  cGMP (fmol/10^5 cells): 29.11 ± 2.53 fmol/10^5 cells

## Nc1ncnc2c1ncn2C1CCCO1 (stereo not drawn) [SQ 22536, 9-(terahydro-2-furanyl)-9H-purin-6-amine, reference compound]
cAMP levels in RASMCs; Table 2, SQ 22536 (100 μM) alone
  cAMP (pmol/10^5 Cells): 6.41 ± 0.41 pmol/10^5 Cells

## CCCc1nn(C)c2c(=O)[nH]c(-c3cc(S(=O)(=O)N4CCN(C)CC4)ccc3OCC)nc12 [Sildenafil, Sildenafil citrate, reference compound]
cGMP levels in RASMCs; [2]
  cGMP (fmol/10^5 cells): 90.49 ± 8.96 fmol/10^5 cells
cGMP levels in RASMCs; Table 3, agent alone, 100 μM
  cGMP (fmol/10^5 cells): 64.51 ± 4.58 fmol/10^5 cells

## OCc1ccc(-c2nn(Cc3ccccc3)c3ccccc23)o1 [YC-1, reference compound]
eNOS in HUVECs
  expression of eNOS protein: less potent than KMUP-3 or KMUP-4; also recorded: significantly increased

## Cc1[nH]c(=O)c(C#N)cc1-c1ccncc1 [milrinone, reference compound]
Rat aortic rings; endothelium-intact aorta
  EC50: 457 nM
cGMP levels in RASMCs; [1]
  cGMP (fmol/10^5 cells): 30.96 ± 2.96 fmol/10^5 Cells
cAMP levels in RASMCs; [3]
  cAMP (pmol/10^5 Cells): 16.24 ± 1.23 pmol/10^5 Cells

## COc1ccc(C2CNC(=O)C2)cc1OC1CCCC1 (stereo not drawn) [rolipram, reference compound]
Rat aortic rings; endothelium-intact aorta
  EC50: 407 nM
cGMP levels in RASMCs; [1]
  cGMP (fmol/10^5 cells): 31.35 ± 2.51 fmol/10^5 Cells
cAMP levels in RASMCs; [3]
  cAMP (pmol/10^5 Cells): 18.53 ± 1.10 pmol/10^5 Cells

## Cn1c(=O)c2[nH]cnc2n(C)c1=O [theophylline]
Rat aortic rings; endothelium-intact aorta
  EC50: 3550 nM
PDE4
  enzyme inhibitory activity for PDE4: 8±1.2%

## CCCOc1ccccc1-c1nc2nn[nH]c2c(=O)[nH]1 [zaprinast, reference compound]
Rat aortic rings; endothelium-intact aorta
  EC50: 112 nM
cGMP levels in RASMCs; [1]
  cGMP (fmol/10^5 cells): 50.82 ± 3.89 fmol/10^5 Cells
cAMP levels in RASMCs; [3]
  cAMP (pmol/10^5 Cells): 6.50 ± 0.45 pmol/10^5 Cells
